Key:
NMDARs = assay: Whole cell patch-clamp recordings of NMDA currents in cultured neurons; assay type: cell-based, mouse; conditions: intracellular dialysis of 1 mM peptide, 300 μM NMDA
[1] = system: cortical neuronal cultures; assay: DNA fragmentation assays (TUNEL, DNA gel electrophoresis); assay type: cell-based, mouse
Description: DNA fragmentation was examined using the terminal deoxynucleotidyl transferase-mediated end nick labeling (TUNEL) method (Gavrieli et al., 1992; Didenko and Hornsby, 1996; Didenko et al., 1998) and by DNA agarose gel electrophoresis (Hill et al., 2000).
TUNEL Assay: Nuclear DNA strand breaks were detected by enzymatically labeling free 3′-OH termini with modified nucleotides provided in the Apoptag kit (Intergen) using the manufacturer's instructions. Visualization of TUNEL-stained nuclei was achieved using an anti-digoxigenin antibody conjugated to a fluorescein or peroxidase reporter molecule (ApopTag Peroxidase Kits S7110 and S7100, respectively, Intergen). In fluorescence experiments, nuclei were counterstained using 5 ng/ml Hoechst 33258 (1:5000, Transduction Labs), and visualized using 465-495 nm excitation and 515-555 nm emission for fluorescein and 340 nm excitation and 510-40 nm emission for Hoechst. The number of TUNEL positive cells was expressed as a fraction of the total cell number in the field. In each culture, 4-8 random fields were quantified. Approximately 100-200 cells were counted per culture, and at least 3 experiments were performed for each set of counts.
DNA Gel Electrophoresis: DNA laddering was evaluated as described elsewhere (Hill et al., 2000). In brief, all tissue was collected from each culture well and pelleted by centrifugation (1000 rpm; 1 min). The cells were digested for 2 h at 56° C. in buffer containing (in mM) 10 Tris pH 8.0, 2 EDTA pH8, 400 NaCl, 0.5% SDS, 1 mg/ml proteinase K. Digest solution was subjected to phenol/chloroform extraction and total DNA was precipitated from the aqueous layer with an equal volume of 100% ethanol. The DNA pellet was dried, dissolved in 50 μl ddH20 and kept overnight at 4° C. 10 μg DNA was prepared on a 2% agarose gel. Gels were stained with ethidium bromide and photographed.

caspase 3 = assay: Active caspase 3 immunofluorescence; assay type: cell-based, mouse; conditions: positive control
Experimental: Cultures were fixed with warm 4% paraformaldehyde and 4% sucrose in PBS for 20 min, permeabilized with 0.1% Triton X-100 for 10 min at 4° C., and blocked with 10% goat serum in PBS for 1 h at RT. Immunofluorescence was visualized with an inverted Nikon microscope using a 40× oil immersion lens. FITC, rhodamine and Hoechst were visualized using 465-495 excitation and 515-555 nm emission, 510-560 nm excitation and 590 nm emission, and 340 nm excitation and 510 nm emission, respectively. Active caspase 3 was labelled by incubating the cultures with a purified rabbit monoclonal anti-active caspase 3 antibody (1:300; BD PharMingen) and a fluorescein-conjugated goat anti-mouse IgG secondary antibody (1:500; Transduction Labs). Nitrotyrosine was labelled by incubating the cultures with a rabbit polyclonal α-nitrotyrosine primary antibody (1:300; Upstate) and a rhodamine-conjugated goat anti-rabbit IgG secondary antibody (1:500; Transduction Labs). AIF was labelled by incubating the cultures with an AIF antibody (1:200; Santa Cruz, (Zhang et al., 2002)) and a rhodamine-conjugated goat anti-mouse IgG secondary antibody (1:500; Transduction Labs). In some experiments, nuclei were counter-stained with Hoechst 33258 (1:5,000, Transduction Labs).

[2] = system: cortical neuronal cultures; assay: Sublethal stretch injury with or without NMDA, cell death in cortical cultures; assay type: cell-based; conditions: 200 μM
Experimental: […]. In brief, cerebral cortices from 10 to 12 embryos were incubated for 10 min in 0.05% trypsin-EDTA, dissociated by trituration, and plated on flexible membranes coated with poly-L-ornithine in 6 well plates (Flexcell International Corporation, Hillsborough, N.C.) at a density of 3.25×10^6 cells per well. Plating medium consisted of DMEM supplemented with 10% heat-inactivated horse serum (Gibco) and (in mM) 2 glutamine, 25 glucose, and 26 bicarbonate. The cultures were maintained at 37° C. in a humidified 5% CO2 atmosphere. After 3 days in vitro, growth of non-neuronal cells was halted by a 48 h exposure to 10 μM FDU-solution (5 μM uridine, 5 μM (+)-5-fluor-2′-deoxyuridine). This produces cultures in which >85% of the cells are neurons, based on immunohistochemical staining for glial fibrillary associated protein (exclusive to astrocytes), and for the NMDAR1 subunit (not shown). The cultures were used for experiments after 12-14 days in vitro.
The cultures, grown on silastic membranes as above, were placed in the Flexercell® FX-3000™ Strain Unit (Flexcell Int., Inc.), a computer-driven instrument that uses a vacuum pulse to deform the culture substrate. In all experiments, the cortical cultures were stretched to 130% of their original length for 1 s, inducing a sublethal injury as recently characterized by us (Arundine et al., 2003). The stretched neurons maintained cell membrane integrity, viability, and electrophysiological function.
Cell death was determined by serial quantitative measurements of propidium iodide (PI) fluorescence using a multiwell plate fluorescence scanner (Cytofluor II, PerSeptive Biosytems, Framingham, Mass., USA) as described previously (Sattler et al., 1997; Sattler et al., 1998). In brief, the culture medium in each tissue culture well was replaced with control solution containing 50 μg/ml PI, and a baseline fluorescence reading was taken. Sequential readings were then taken at appropriate intervals over the 20 h observation period. The fraction of dead cells in each culture at a given time was calculated as: Fraction dead=(Ft−Fo)/FNMDA Where Ft=PI fluorescence at time t, F0=initial PI fluorescence at time zero and FNMDA=background subtracted PI fluorescence of identical cultures from the same dissection and plating, 20-24 h after a 60 min exposure to 1 mM NMDA at 37° C. Based on manual observations at the time of validation of this technique, this NMDA exposure routinely produced near complete neuronal death in each culture but had no effect on surrounding glia (also see (Bruno et al., 1994; David et al., 1996; Sattler et al., 1997)). Adding Triton X-100 (0.1%) to cultures treated in this manner produced an additional 10-15% increase in PI fluorescence due to permeabilization of non-neuronal cell membranes, consistent with a 10-15% glial component in the cultures.
All experiments were performed at 37° C. Unless otherwise indicated, all solutions contained nimodipine (2 μM) and CNQX (10 μM) to restrict the actions of applied NMDA to NMDARs by preventing the secondary activation of other pathways (Sattler et al., 1998). In general, the cultures were washed ×2 with control solution and immediately stretched to 130% of their original length for 1 s. After the stretch, they were washed ×1 with control solution alone or challenged with an additional treatment (e.g., NMDA) and placed at 37° C. for 1 h. They were then washed ×1 with control solution and then with control solution containing 50 μg/ml PI to obtain a baseline reading. In pilot studies, baseline readings obtained at this stage were similar to those obtained by staining the cells with PI prior to stretch. As the stretch causes splashing of the bath solution, staining with PI after stretch reduced biohazard potential and artifacts associated with PI outside the culture well. Unstretched controls were manipulated identically to stretched cultures.

[3] = system: cortical neuronal cultures; assay: Staurosporine-induced cell death in cortical cultures; assay type: cell-based, mouse; conditions: 200 μM for 48 h, staurosporine 1 μM
traumatic brain injury = assay: Lateral fluid percussion injury model of TBI; assay type: in vivo, Sprague-Dawley rats; conditions: analyzed 24 h after injury
Experimental: Adult male Sprague-Dawley rats weighing approximately 350 g were ordered from Charles River and anesthesia was induced using a gaseous mixture of 1:2 oxygen:nitrous oxide with 2% halothane. The halothane level was reduced to 1% during surgical manipulations and weights were recorded prior to preparatory surgery. The preparatory surgery for these experiments included the cannulation of the left femoral vein and a 5 mm diameter craniotomy. The venous cannula is sealed and tucked inside the animal whereupon the wound is sutured. The center of the craniotomy lies about 2.5 mm to the right of the sagittal suture, between the bregma and lambda. A modified Leur-loc is attached to the perimeter of the craniotomy with superglue (FIG. 28).
Dental acrylic (GC America Inc, Alsip, Ill.) is applied around the modified Leur-loc to seal it into place. A small piece of gelfoam is placed into the opening and the skin is sutured over the entire setup. The animal is then returned to its cage. The following day, the animal is re-anesthetized, weighed, and its wound is re-opened. The gelfoam is removed and the animal is attached to the fluid percussion device via the modified Leur-loc. At this time, the animal is given a ˜20 ms saline injection at approximately 2.4 atmospheres (350 mV on the oscilloscope) using the fluid percussion injury device (Custom Design & Fabrication, Richmond, Va.) (FIG. 29).
On occasion, the animal ceases spontaneous breathing following the injury and 1-2 chest compressions are required for resuscitation. The modified Leur-loc along with the dental acrylic is removed en bloc immediately following the injury. The animal is placed on 100% oxygen while its wound is cleaned and resealed with Vetbond tissue adhesive (3M Worldwide, Maplewood, Minn.). The rat's body temperature during the recovery time is maintained at 37° C. with a homeothermic warming blanket (Harvard Bioscience Inc, Holliston, Mass.). The amount of time necessary for the righting reflex to return is recorded and the animal is placed back into its cage. At 3 h post-injury, the animal is re-anesthetized and weighed again. The wound overlying the femoral cannula is opened and the cannula is cleaned out using heparinized saline. […] The cannula is sealed, tucked again into the animal, and the wound is re-sutured. At 24 h post-injury, the animal is re-anesthetized and weighed again. The rat is transcardially perfused using heparinized saline to clean out the cardiovascular system, followed by a 4% formalin fixative solution. The rat is decapitated and left in the fixative solution overnight. The brain is extracted the following day and processed. The volume of damaged brain (FIG. 26, right graph) is assessed according to the same methods as described in Aarts et al., 2002, for assessing stroke volumes. […]

[4] = system: transient middle cerebral artery occlusion; assay: Transient MCAO, dose study of infarct size; assay type: in vivo, Sprague-Dawley rats; conditions: 6 mg/kg 1 h before the stroke
reactive oxygen species = assay: ROS production (DHR fluorescence); assay type: cell-based, mouse
Experimental: The production of reactive oxygen species (ROS) was measured with DHR. In brief, DHR is oxidized to a fluorescent rhodamine-123 (Royall and Ischiropoulos, 1993), and the consequent rise in fluorescence may be used as an indicator of ROS production.
ROS were measured as previously described (Tymianski et al., 1998; Aarts et al., 2003). In brief, cultures were pre-loaded for 30 min with 5 μM DHR and subjected to the experimental insult. DHR fluorescence was measured in a multiwell plate fluorescence scanner (Cytofluor II, PerSeptive Biosytems, Framingham, Mass., USA; 485 nm excitation, 530 emission). DHR fluorescence was normalized to baseline using the formula at (Ft−Fo)/F0; Where Ft=DHR fluorescence at time t, Fo=DHR fluorescence at time zero. DHR fluorescence images were also acquired using a microscope (465-495 nm excitation and 515-555 nm emission) as described above for TMRM.

[5] = system: mitochondrial membrane potential; conditions: 10 μM; 10 min
Experimental: Cultures were preincubated at 37° C. with 10 nM TMRM for 30 min. […] TMRM was maintained in the solution throughout the experiment. TMRM fluorescence was imaged on a Nikon Eclipse TE-2300 microscope using 20× objective (Nikon), a 510-560 nm bandpass excitation and 590 nm emission filter. Images were acquired using a Hamamatsu ORCA-ER digital camera and Simple PCI software (Nikon). Fluorescence from 10-30 cells was averaged and background subtracted for each image.

[6] = system: cultured cortical neurons
[7] = 20 h post-insult, 200 μM MnTBAP or 100 μM L-NAME

CSKDTMEKSESL
peak NMDA current amplitudes (NMDARs): 2540±281 pA

CN[C@@H]1C[C@H]2O[C@@](C)([C@@H]1OC)n1c3ccccc3c3c4c(c5c6ccccc6n2c5c31)C(=O)NC4 [staurosporine]
DNA laddering by gel electrophoresis ([1]; 1 μM for 48 h): DNA ladders suggestive of intenucleosomal DNA fragmentation
TUNEL staining ([1]; 1 μM for 48 h): TUNEL staining was observed
active caspase 3 staining (caspase 3): stained for active caspase 3

z-val-ala-asp-fluoromethylketone [z-VAD-FMK]
cytotoxicity in stretched cultures with 30 μM NMDA [2]: no significant reduction in cytotoxicity
toxicity to unstretched cultures or stretch alone [2]: not toxic
attenuation of staurosporine-induced death [3]: significantly reduced
attenuation of staurosporine-induced death ([3]; listed as zvadFMK): 47%
DNA fragmentation of neurons exposed to stretch+NMDA ([1]; DNA gel electrophoresis): did not reduce DNA fragmentation

Tat-KLSSIETDV
total volume of injured brain (traumatic brain injury; 3 hours after TBI): significantly reduced
fraction of dead cells in cerebral cortex and hippocampus ipsilateral to the injury (traumatic brain injury; via femoral cannula 3 hours after TBI): markedly reduced fraction of dead cells

CC(C(O)c1ccc(O)cc1)N1CCC(Cc2ccccc2)CC1 (centres unmarked) [Ro25-6981, reference compound]
infarct size versus control dose [4]: significant reduction in infarct size

N#CC(C#N)=NNc1ccc(OC(F)(F)F)cc1 [FCCP, reference compound]
DHR fluorescence (reactive oxygen species; mitochondrial uncoupler): abolished all DHR fluorescence
mitochondrial depolarization (loss of TMRM fluorescence) [5]: profound mitochondrial depolarization

O=C(O)c1ccc(-c2c3nc(c(-c4ccc(C(=O)O)cc4)c4ccc([n-]4)c(-c4ccc(C(=O)O)cc4)c4nc(c(-c5ccc(C(=O)O)cc5)c5ccc2[n-]5)C=C4)C=C3)cc1.[Mn+3] [MnTBAP, manganese(III) tetrakis(4-benzoic acid) porphyrin]
cell death in stretched cells treated with 30 μM NMDA ([2]; 30 min preincubation, 20 h): completely eliminated cell death
DNA laddering after stretch followed by NMDA [1, 7]: virtually abolished
TUNEL staining after stretch followed by NMDA [1, 7]: virtually abolished
DHR fluorescence (ROS production) (reactive oxygen species; 200 μM pretreatment): reduced DHR fluorescence in all culture conditions
SNP toxicity ([6]; SNP 300 μM, 200 μM MnTBAP pretreatment): reduced SNP toxicity to baseline

N[C@@H](CSN=O)C(=O)O [S-nitrosocysteine]
NO donor toxicity [6]: highly toxic

Source: patent US8071548B2, “Method of reducing injury to mammalian cells” (Nono, Inc., priority 2002, dated 2011)
